Blank lines part the entries; values can stand above or below the molecule they belong to.
Assays:
Type in all cases: biochemical
[1] = system: HIV reverse transcriptase; assay: HIV reverse transcriptase activity with ADPRT, poly-ADP-ribosylated ADPRT and drug inhibitors of poly-ADP-ribosylation (FIG. 3, Example 4); details: for HIV reverse transcriptase activity: absence of ADPRT
Procedure: Reverse transcriptase activity assay conditions were as described in Example 1. NAD was added in a concentration of 62.5 μM and ADPRT in a concentration of 0.5 μM. Inhibitors 6-amino-1,2-benzopyrone (6-ABP) or 5-iodo-6-amino-1,2-benzopyrone (5-I-6-ABP) were added in concentrations 1000 μM, and 400 μM, respectively.
(§1) The medium (coctail) comprises 50 mM Tris-HCl pH 8.0; 60 mM KCl; 7 mM MgCl2; 40 mM DTT (dithiothreitol) 2 mM GSH (glutathione); 60 μg/ml whole histones/ml (Grade A, Sigma, St. Louis); poly (rA) oligo (dT)12-18 (Pharmacia, Piscataway, N. J.) and 50 μM M(0.1 μCalif.) [alfa ^32 P]TTP (ICN, Irvine, CA.) (Reverse transcriptase uses poly(rA) as template and the annealed oligo(dT) as primer for incorporating the labeled TTP).
(§2) The reverse polymerization was started by adding 0.02 μg of recombinant reverse transcriptase protein (ERC BioServices, Rockville, Md.) into 50 μl of coctail. The reaction mixture incubated at 25° C. for 5 minutes.
(§3) The reaction was stopped by adding 2 ml of ice cold 20% trichloroacetic acid and the precipitated nucleic acids were filtered onto glass fiber filters, dried with ethanol and their incorporated radioactivity counted in a liquid scintillation counter.
Using generally the reverse transcriptase procedure described in Example 1, three groups of samples were prepared. The first group contained the coctail described in the Example 1 containing poly (rA).cndot.oligo (dT)12-18 as a template and drugs 6-ABP or 5-I-6-ABP in concentration 1,000 μM and 400 μM, respectively, without the presence of ADPRT.
The second group contained the same ingredients as group 1 but ADPRT at a concentration to 0.5 μM was added to all samples.
The third group contained the same ingredients as group 2 but NAD in a concentration of 62.5 μM was added.

[2] = system: Human recombinant HIV reverse transcriptase; assay: Effect of unmodified and ADP-ribosylated ADPRT on HIV reverse transcriptase activity (FIG. 1, Example 2)
Procedure: The basic assay system for measurement of reverse transcriptase activity is described in Example 1. Human recombinant HIV reverse transcriptase used in the assay was obtained from HIV, ERC Bioservices. ADPRT used in this experiment is highly purified ADPRT protein prepared according to Anal. Biochem., 167:160 (1987). ADPRT was added to the reverse transcriptase assay system at various concentrations ranging from 0.01 to 1 μM. When the effect of […], pre-ADP-ribosylated ADPRT was assayed, the ADPRT enzyme was incubated with NAD and cofactors according to FEBS Letters, 212:73 (1987). The poly ADP-ribosylated ADPRT was isolated by centricon ultrafiltration and added in various concentration as shown in FIG. 1.
as §1, §2, §3
A small amount (300 μg) of ADPRT (0.5 μM) of final concentration was incubated with 100 mM NAD in 3 ml of 25 mM Tris-HCl (pH 7.4), 0.3% Tween 20 at 25° C. for three hours to render the protein auto-poly (ADP-ribosyl)ated, then concentrated to 3 mg/ml. Using generally the reverse transcriptase assay conditions as described in Example 1, the effect of automodified and unmodified ADPRT was monitored.

[3] = system: recombinant human HIV reverse transcriptase; assay: Activation of HIV reverse transcriptase by auto-(ADP-ribosylated) ADPRT (FIG. 2, Example 3); details: 0.5 μM ADPRT, no NAD
Procedure: Such abrogation and its time dependency is further illustrated in FIG. 2 wherein the activation of HIV reverse transcriptase by auto-ADP-ribosylated ADPRT is expressed as % of reverse transcriptase activity. The experimental conditions are as described in Example 3. […] Samples in columns 3-5 were incubated for time periods as indicated.
as §1, with “TTP). […]” for “TTP).”
The reaction was stopped by adding 2 ml of ice cold 20% trichloroacetic acid and the precipitated nucleic acids were filtered onto glass fiber filters, dried with ethanol and their incorporated radioactivity counted in a liquid scintillation counter. […]
The mixture was incubated at 25° C. for 5, 10 and 25 minutes, then the recombinant reverse transcriptase was added and the mixture was incubated for additional 5 minutes. The reaction was stopped, as described above, the precipitate was filtered and radioactivity counted.

activity of reverse transcriptase ([1]; 0.5 μM ADPRT + 62.5 μM NAD + 5-I-6-ABP 400 μM (column 9)): the same as the one seen in column 6 | activity of reverse transcriptase ([1]; 0.5 μM ADPRT + 5-I-6-ABP 400 μM): only very slightly | activity of reverse transcriptase ([1]; 0.5 μM ADPRT + 5-I-6-ABP 400 μM, listed as 5-I-ABP, 400 µM): about 50% | HIV reverse transcriptase activity ([1]; 5-I-6-ABP 400 μM): did not affect
Molecule: Nc1ccc2oc(=O)ccc2c1I [5-I-6-ABP, 5-iodo-6-amino-1,2-benzopyrone]

Molecule: adenosine diphosphoribosyl transferase [ADPRT]
inhibition of reverse transcriptase activity ([2]; 0.05 μM pure ADPRT): 10% | effect on reverse transcription (FIG. 1 summary) ([2]; 0.01 to 1 μM added to RT assay): inhibits RT in a concentration-dependent manner | inhibition of reverse transcriptase ([2]; around 1-1.3 μM ADPRT): 75-80% | activity of reverse transcriptase ([2]; around 1-1.3 μM ADPRT, control 100%): about 20% | depression/inhibition of reverse transcriptase activity [3]: about 50% | activity of reverse transcriptase ([1]; 0.5 μM pure ADPRT only (column 4)): about 50%

reverse transcriptase activity ([1]; 0.5 μM ADPRT + 62.5 μM NAD + 6-ABP 1000 μM): about 60% | activity of reverse transcriptase ([1]; 0.5 μM ADPRT + 6-ABP 1000 μM): only very slightly | activity of reverse transcriptase ([1]; 0.5 μM ADPRT + 6-ABP 1000 μM, 1000 µM): about 50% | HIV reverse transcriptase activity ([1]; 6-ABP 1000 μM): did not affect
Molecule: Nc1ccc2oc(=O)ccc2c1 [6-ABP, 6-amino-1,2-benzopyrone]

Reference: patent publication US6316495A, “Method for inhibition of retroviral replication” (priority 1999, dated 2001)
